Data on two compounds can be found in patent US20100190729A1 (CHUNG-ANG University Industry Academic Cooperation …, priority 2009, published 2010).

Molecules are shown by their SMILES.

Data set [1] is described as follows: Solubility in water on preparing the stock solution. Particulars: stock solution preparation.
From the text: The final concentration of DMSO was adjusted to not more than 0.1% so as to maximally exclude the interference of the solvent. […] The prepared stock solutions were stored and then used after dilution to the suitable concentration.
Data set [2] has as its system BSA (bovine serum albumin). In words: BSA degradation test (anti-oxidative activity, Cu2+/H2O2). It counts as biochemical.
Method: The hydroxyl radical-mediated oxidation experiments were carried out by metal-catalyzed reactions. BSA (bovine serum albumin) was dissolved in 150 mM phosphate buffer (pH 7.3) to a final concentration of 0.5 mg/ml. […] 50 μg/ml of ascorbic acid was directly dissolved in 1×PBS and served as a control (an anti-oxidant). After incubation in an open tube, the reaction was kept to stand in a 37° C. shaking water bath. Each experimental group was loaded on 10% SDS-PAGE and stained with 0.01% Coomassie blue.
50 μg of BSA (Sigma) was added to 37.5 mM phosphate buffers (pH 7.3) containing 100 μM Cu^2+, 2.5 mM H2O2 and various amounts of hirsutanonol (1, 50, 100/200 μg/ml), and incubated at 37° C. for 2 hrs. Vitamin C (50 μg/ml) was served as a positive control. The reaction mixture was separated on 10% SDS gel and the protein bands were stained with 0.01% Coomassie blue.
Evaluation of anti-oxidative activity was preformed according to a BSA (bovine serum albumin) degradation test. BSA degradation test is a method to verify a capacity of an anti-oxidative compound which protects proteins or enzymes from damage by reactive oxygen species (ROS) using a metal ion-catalyzed reaction. […] The reaction mixture was electrophoresized on 10% SDS-PAGE (SDS-polyacrylamide gel).
To examine anti-oxidative activity of hirsutanonol, the removal of radical produced from H2O2/Cu^2+ was measured.
The next data set concerns Jurkat cells. The data set is described as follows: Inhibition of cell proliferation, CCK assay (WST-8). It counts as cell-based, human. The method, then: FIG. 7 is a graph measuring the inhibitory effect of hirsutanonol on cell proliferation. Jurat cells were seeded into a 96 well plate at a concentration of 1×10^4 cells per well, and cultured in 2% FBS DMEM with or without hirsutanonol. Cell numbers were counted in triplicate wells by measuring the absorbance of reduced WST-8 (Dojindo, Japan) at 450 nm.
Hirsutanonol activity to inhibit cell proliferation of Jurkat cells was tested using CCK assay. […] Therefore, about 50 μg/ml of hirsutanonol was used in experiments to assess in vitro activity of hirsutanonol.
(In general: Tetrazolium assays rely on reduction of a dye to a coloured formazan, in cell work by metabolically active cells.)

The test system of data set [3] is IL-2. In words: IL-2 expression in anti-CD3 activated murine splenocytes, ELISA. It counts as cell-based, mouse. Here is the method: FIG. 8 is the experimental results showing the inhibitory effect of hirsutanonol on IL-2 expression. Murine splenocytes were grown on 96 well plate at a concentration of 1.5×10^4 cells per well. For T cell activation, CsA (50 nM) and hirsutanonol were added into a well added with anti-CD3 mAb and into all of other wells. Cells were incubated for 72 hrs and then ELISA was carried out using the supernatants collected from each well.
IL-2 is a cytokine expressed in Th1 cells and plays a crucial role in the proliferation of T cells. Hirsutanonol was added to splenic T cells which have been primarily cultured from murine splenocytes and pre-activated by anti-CD3 mAb. Inhibitory activity of hirsutanonol on IL-2 expression was measured using ELISA. Cyclosporine A (CsA) with strong inhibitory activity against IL-2 secretion was served as a positive control.

Data set [4] concerns IL-2. In words: IL-2 mRNA expression in anti-CD3 activated splenocytes, RT-PCR. It counts as cell-based, mouse. The method, then: (§1) FIG. 9 represents RT-PCR results showing an inhibitory effect of hirsutanonol on Th1 and Th2 cytokine expression. Murine splenocytes were cultured on 12 well plate (RT-PCR) at a concentration of 1.5×10^4 cells per well. For T cell activation, CsA (50 nM) and hirsutanonol were added into a well added with anti-CD3 mAb and all of other wells. Cells were incubated for 24 hrs and then […] was carried out. GAPDH was served as an internal control.
(§2) The mRNA expression levels of Th1 cytokines, IL-2 and Th2 cytokines, IL-4, IL-10 and IL-13 were examined. T cells activated by anti-CD3 mAb among spleen lymphocytes were used as a target. The primer sequences used to analyze IL-2, IL-4, IL-10 and IL-13 mRNA are as follows.

The subject of the next data set is IL-4. The data set is described as follows: IL-4 mRNA expression in anti-CD3 activated splenocytes, RT-PCR. It counts as cell-based, mouse. Here is the method: as §1, §2
The test system of another data set is IL-10. The data set is described as follows: IL-10 mRNA expression in anti-CD3 activated splenocytes, RT-PCR. It counts as cell-based, mouse. The method, then: as §1, §2
The next data set has as its system IL-13. In words: IL-13 mRNA expression in anti-CD3 activated splenocytes, RT-PCR. It counts as cell-based, mouse. The method, then: as §1, §2
For another data set, the system named is rat mast cell (RBL-2H3). In words: β-hexosaminidase assay (mast cell degranulation). The format is cell-based. The method, then:
FIG. 10 represents experimental results of β-hexosaminidase assay for hirsutanonol. The β-hexosaminidase (beta-hex) assay was performed according to the standard protocol of RBL-2H3 cell line. Suitable supernatant was collected and beta-hex activity was measured by incubating with a beta-hex substrate (p-nitrophenyl N-acetyl-beta-D-glucosaminide; Sigma) colored at 405 nm by cutting.
For testing the degranulation in rat mast cell (RBL-2H3) by hirsutanonol, β-hexosaminidase assay was carried out. β-hexosaminidase assay allows us to measure the activity and degranulation of mast cells.

The subject of a further data set is CD25/CD69. The data set is described as follows: T-cell early activation markers, flow cytometry. It counts as cell-based, mouse. Particulars: 100 μg/ml, splenocytes stimulated by anti-CD3 mAb, 24 hrs. The method, then:
FIG. 12 is a flow cytometry result analyzing the changes of CD25/CD69 expression induced by hirsutanonol. Splenocytes were stimulated by anti-CD3 mAb in the presence or absence of hirsutanonol. Each hirsutanonol and CsA was treated at concentrations of 50 and 100 μg/ml, and 50 nM. After incubation for 24 hrs, the percentage of cells expressing CD25 and CD69 were measured using flow cytometry.
CD25 and CD69 expression levels were comparatively measured in the group of basal, CsA and hirsutanonol (50, 100 μg/ml) respectively. CsA was used as a control group due to its strong inhibitory activity on CD25 and CD69 expression. The results were represented in FIG. 12.
On the technique in general: In flow cytometry, cells or beads pass a laser one at a time.

In the case of `O=C(CCc1ccc(O)c(O)c1)C[C@H](CCc1ccc(O)c(O)c1)O[C@@H]1OC[C@@H](O)[C@H](O)[C@H]1O` [oregonin], the solubility in water result in data set [1] is reported as “feasibly dissolved in water”.

As for `O=C(CCc1ccc(O)c(O)c1)CC(O)CCc1ccc(O)c(O)c1` (stereo not drawn) [hirsutanonol], in data set [2] (hirsutanonol 100 μg/ml), the BSA protection effect entry is “significantly exhibited BSA protection effect”. In addition, in data set [2] (hirsutanonol 1, 50, 100/200 μg/ml, Cu2+ 100 μM, H2O2 2.5 mM), the “activity to protect BSA” value was “increased in a concentration-dependent manner”. Besides, the “BSA protection effect compared to Vitamin C” value in data set [2] (hirsutanonol, Vitamin C 50 μg/ml positive control) is on record as “lower than that of Vitamin C”. Further, the “concentration exhibiting inhibitory effects on cell proliferation” value in the data set on Jurkat cells is “over 50 μg/ml”. In addition, the “inhibitory effect on IL-2 expression compared to CsA” value with IL-2 [3] (50 μg/ml or 100 μg/ml, CsA 50 nM, 72 hrs) is “much higher than that of CsA”. Further, the “inhibition effect on IL-2 secretion” value in the data set on IL-2 [3] (50 μg/ml, without cytotoxicity) is given as “remarkably exhibited”. The “inhibitory activity on IL-2 mRNA expression” value in the data set on IL-2 [4] (50 μg/ml or 100 μg/ml) is given as “significant inhibitory activity”. For the same compound, in the data set on IL-2 [4] (100 μg/ml, CsA 50 nM), the “inhibitory effect on IL-2 mRNA expression compared to CsA” value was “inhibitory effect equal to CsA”. Besides, the “inhibitory activity on IL-4 mRNA expression” value in the data set on IL-4 (50 μg/ml or 100 μg/ml) is recorded as “significant inhibitory activity”. The “inhibitory effect on IL-4 mRNA expression compared to CsA” value in the data set with IL-4 (100 μg/ml, CsA 50 nM) was “inhibitory effect equal to CsA”. Also, the “inhibitory activity on IL-10 mRNA expression” value with IL-10 (50 μg/ml or 100 μg/ml) is “significant inhibitory activity”. Moreover, the “inhibitory effect on IL-10 mRNA expression compared to CsA” value in the data set on IL-10 (100 μg/ml, CsA 50 nM) is reported as “inhibitory effect equal to CsA”. For the same compound, in the data set on IL-13 (50 μg/ml or 100 μg/ml), the “inhibitory activity on IL-13 mRNA expression” value was “significant inhibitory activity”. In addition, the “inhibitory effect on IL-13 mRNA expression compared to CsA” value in the data set with IL-13 (100 μg/ml, CsA 50 nM) is recorded as “inhibitory effect equal to CsA”. Besides, in the data set with rat mast cell (RBL-2H3) (100 μg/ml), the “activity level of β-hexosaminidase” value is “maximally inhibited”. In the data set with rat mast cell (RBL-2H3) (β-hexosaminidase), the “inhibitory capability compared to CsA” value is listed as 20 fold. Further, the “inhibitory activity on CD25/CD69 expression compared to basal and CsA” value in the data set on CD25/CD69 is “excellent inhibitory activity”.
